Results as given in patent US6852751B2, “Difluorobutyric acid metalloprotease inhibitors” (The Procter & Gamble Company, priority 2000, dated 2005).

System: human subject suffering from rheumatoid arthritis
Experiment: Treatment of a human subject with rheumatoid arthritis, oral tablets (Example A)
Assay type: in vivo
Settings: tablet with 15 mg compound, three tablets per day orally for 2 years
Protocol: A tablet composition for oral administration, according to the present invention, is made comprising:
A human subject weighing 60 kg (132 lbs), suffering from rheumatoid arthritis, is treated by a method of this invention. Specifically, for 2 years, a regimen of three tablets per day is administered orally to said subject.

`COc1ccc(-c2ccc(C(F)(F)CCC(=O)O)cc2)cc1` [Example 1, 4,4-Difluoro-4-(4′-methoxy-biphenyl-4-yl)-butyric Acid] was tested, and the “examination at the end of the treatment period: inflammation, mobility, pain” value was “reduced inflammation and improved mobility without concomitant pain”.
